Values after ≈ are worked out from the molar mass of the structure shown. Read-outs that look alike come from different tables or passages of the source.
Experiments:
[1] = tested on: VRE ATCC700221; experiment: Anti-bacterial activity, Bioscreen C growth curve: VRE; assay type: cell-based, vancomycin-resistant Enterococcus (VRE); conditions: Enterococcus, 35° C., 16 hours, negative control = 100, read-out: % of growth at 25 PPM compared to the negative control, VRE ATCC700221
Procedure: (§1) For the determination of the anti-bacterial and anti-fungal activity the Bioscreen C Analyser Labsystems, Finland, was used. This is an automated reader-incubator. It measures growth continuously by vertical photometry (optical density), processes the data and provides a print out of the results. The area under the growth curve is automatically determined via the Biolink software.
(§2) The inoculum size of the bacteria is standardized to approximately 5×10^5 CFU/ml.
(§3) For bacteria, the 100-honey-well plates containing test chemical, Mueller-Hinton broth and inoculum (=sample) are incubated at 35° C. for 16 hours. Also wells without inoculum are incubated (=blanco). Yeasts are incubated 35° C. for 24 hours in RPMI 1640+MOPS buffer at 165 mM. Moulds also in RPMI 1640+MOPS buffer at 165 mM are incubated 25° C. for 5 days. All micro-organisms are screened against a known concentration of the reference antibiotics or antimycotics such as vancomycin, penicillin G, gentamicin or amphotericin B. The growth curve and the area under the growth curve can be determined using the Biolink software; this is illustrated in FIG. 1.
(§4) The area of the blanco is subtracted from the area of the sample, this number (delta) gives us an indication of the biological activity of the molecules tested and can be expressed as a % of growth at a specific dose compared to a negative control that has a value of 100, illustrated in FIG. 2. Screening of each dose of a specific compound is repeated 5 times. The dose used for all new molecules in all tests is 25 PPM or 25 μg/ml.
(§5) In Table 4 the results of the anti-bacterial activity is given for the new molecules. The micro-organisms used are Staphylococcus aureus, MRSA, VRE, Enterococcus faecalis, Salmonella typhimurium and Pseudomonas aeruginosa.

[2] = tested on: CMV AD-169 strain; experiment: Anti-CMV activity: plaque reduction in HEL cells, AD-169 strain; assay type: cell-based, human cytomegalovirus (CMV); conditions: Human betaherpesvirus 5, AD169, HEL, reduce virus plaque formation by 50%, virus input 100 PFU
[3] = tested on: VV; experiment: microbe, parasite or virus in culture; assay type: cell-based; conditions: Orthopoxvirus vaccinia, E6SM, read-out: EC50 VV (E6SM)
[4] = tested on: human cervix carcinoma cells (HeLa); experiment: Cytostatic activity: inhibition of proliferation of HeLa cells; assay type: cell-based; conditions: 50% inhibitory concentration, cell proliferation
Procedure: (§6) The compounds were tested for anti-tumor activity via the inhibitory effects on the proliferation of murine leukemia cells (L1210/0), murine mammary carcinoma cells (FM3A), human T-lymphocyte cells (Molt4/C8, CEM/0) and human cervix carcinoma cells (HeLa).

[5] = tested on: Candida albicans IHEM 10284 - ATCC 24433; experiment: Anti-fungal activity, Bioscreen C growth curve: Candida albicans (yeast); assay type: cell-based; conditions: Candida albicans, ATCC24433; 25 PPM; 35° C., 24 hours; negative control = 100; read-out: % of growth at a dose of 25 PPM compared to the negative control, Candida albicans IHEM 10284 - ATCC 24433
Procedure: as §1
The inoculum size of the yeast is standardized to 0.5-2.5×10^3 CFU/ml.
as §3, §4
(§7) In Table 5 the anti-fungal activity is given for the new molecules. The micro-organisms used were Candida albicans (a typical yeast) and Microsporum gypseum (a typical mold).
(§8) Also for the determination of the anti-fungal activity the Bioscreen C Analyser Labsystems Oy, Finland was used. It measures growth continuously by vertical photometry (optical density), processes the data and provides a print out of the results. The area under the growth curve is automatically determined via the Biolink software.
(§9) The inoculum size of the yeast is standardized to 0.5-2.5×10^3 CFU/ml. The inoculum size of the mould is standardized to 0.4-5.0×10^4 CFU/ml. Yeasts are incubated 35° C. for 24 hours in RPMI 1640+MOPS buffer at 165 mM. Moulds also in RPMI 1640+MOPS buffer at 165 mM are incubated 25° C. for 5 days.
(§10) As a control, all micro-organisms are screened against some reference antibiotics with known MIC. Screening of each dose of a specific compound is repeated 5 times.

[6] = tested on: HIV-2 (ROD); experiment: Anti-viral activity: HIV-2-induced cytopathicity in human CEM cell cultures; assay type: cell-based; conditions: Human immunodeficiency virus 2, CCRF-CEM; concentration required to inhibit HIV-induced cytopathicity in human CEM cell cultures by 50%
[7] = tested on: Microsporum gypseum IHEM 3999 - ATCC 14683; experiment: Anti-fungal activity, Bioscreen C growth curve: Microsporum gypseum (mold); assay type: cell-based; conditions: Nannizzia gypsea, ATCC14683, 120 h; 25 PPM; 25° C., 5 days; negative control = 100; read-out: % of growth at a dose of 25 PPM compared to the negative control, Microsporum gypseum IHEM 3999 - ATCC 14683
Procedure: as §1
The inoculum size of the mould is standardized to 0.4-5.0×10^4 CFU/ml.
as §3, §4, §7, §8, §9, §10

[8] = tested on: HSV-1 (KOS); experiment: Anti-viral activity: HSV-1-induced cytopathicity in human embryo fibroblast E6SM cell cultures; assay type: cell-based, herpes simplex virus (HSV); conditions: Human alphaherpesvirus 1, 50%
[9] = tested on: P. aeruginosa ATCC27853 LMG16217; experiment: Anti-bacterial activity, Bioscreen C growth curve: P. aeruginosa; assay type: cell-based, Pseudomonas aeruginosa; conditions: Pseudomonas aeruginosa; 25 PPM; 35° C., 16 hours; negative control = 100; read-out: % of growth at 25 PPM compared to the negative control, P. aeruginosa ATCC27853 LMG16217
Procedure: as §1, §2, §3, §4, §5

[10] = tested on: murine leukemia cells (L1210/0); experiment: Cytostatic activity: inhibition of proliferation of L1210/0 cells; assay type: cell-based; conditions: Mus musculus, L1210/0; 50% inhibitory concentration, cell proliferation; read-out: IC50 L1210/0
Procedure: as §6

[11] = tested on: MRSA ATCC33591; experiment: Anti-bacterial activity, Bioscreen C growth curve: MRSA; assay type: cell-based, methicillin-resistant Staphylococcus aureus (MRSA); conditions: Staphylococcus aureus, ATCC 33591 / LMG10147 / MRSA; 25 PPM; 35° C., 16 hours; negative control = 100; read-out: % of growth at 25 PPM compared to the negative control, MRSA ATCC33591 LMG10147
Procedure: as §1, §2, §3, §4, §5

[12] = tested on: human T-lymphocyte cells (CEM/0); experiment: Cytostatic activity: inhibition of proliferation of CEM/0 cells; assay type: cell-based; conditions: CCRF-CEM, 50% inhibitory concentration, cell proliferation, read-out: IC50 CEM/0
Procedure: as §6

[13] = tested on: VZV YS; experiment: Anti-viral activity: VZV-induced plaque formation in HEL cell cultures, YS strain; assay type: cell-based, varicella zoster virus (VZV); conditions: Human alphaherpesvirus 3, VZV-induced plaque formation in human embryonic lung HEL cell cultures, 50%
[14] = tested on: VZV OKA; experiment: microbe, parasite or virus in culture; assay type: cell-based, varicella zoster virus (VZV); conditions: Human alphaherpesvirus 3, HEL, read-out: EC50 VZV (HEL) OKA
[15] = tested on: S. typhimurium ATTC700408; experiment: Anti-bacterial activity, Bioscreen C growth curve: S. typhimurium; assay type: cell-based; conditions: Salmonella enterica, LMG16217 / TYPHIMURIUM, 35° C., 16 hours, negative control = 100, read-out: % of growth at 25 PPM compared to the negative control, S. typhimurium ATTC700408 LMG16217
Procedure: as §1, §2, §3, §4, §5

[16] = tested on: S. aureus ATTC29213 LMG10147; experiment: Anti-bacterial activity, Bioscreen C growth curve: S. aureus; assay type: cell-based; conditions: Staphylococcus aureus, 35° C., 16 hours, negative control = 100, read-out: % of growth at 25 PPM compared to the negative control, S. aureus ATTC29213 LMG10147
Procedure: as §1, §2, §3, §4, §5

[17] = tested on: HIV-1 (IIIB); experiment: microbe, parasite or virus in culture; assay type: cell-based; conditions: Human immunodeficiency virus 1, IIIB, CCRF-CEM; concentration required to inhibit HIV-induced cytopathicity in human CEM cell cultures by 50%
[18] = tested on: human T-lymphocyte cells (Molt4/C8); experiment: Cytostatic activity: inhibition of proliferation of Molt4/C8 cells; assay type: cell-based; conditions: Molt4/C8, 50% inhibitory concentration, cell proliferation, read-out: IC50 Molt4/C8
Procedure: as §6

[19] = tested on: HSV-2 (G); experiment: Anti-viral activity: HSV-2-induced cytopathicity in human embryo fibroblast E6SM cell cultures; assay type: cell-based, herpes simplex virus (HSV); conditions: Human alphaherpesvirus 2, 50%
[20] = tested on: E. faecalis ATTC29212 LMG 8222; experiment: Anti-bacterial activity, Bioscreen C growth curve: E. faecalis; assay type: cell-based; conditions: Enterococcus faecalis, LMG8222, 35° C., 16 hours, negative control = 100, read-out: % of growth at 25 PPM compared to the negative control, E. faecalis ATTC29212 LMG 8222
Procedure: as §1, §2, §3, §4, §5

[21] = tested on: murine mammary carcinoma cells (FM3A); experiment: Cytostatic activity: inhibition of proliferation of FM3A cells; assay type: cell-based; conditions: Mus musculus, 50% inhibitory concentration, cell proliferation, read-out: IC50 FM3A/0
Procedure: as §6

[22] = Cytotoxicity: inhibition of HEL cell growth (CC50); assay type: cell-based; conditions: human; concentration required to reduce cell growth by 50%; HEL cells, three days
Procedure: The medium was then replaced by MEM containing various concentrations of the test compound. After three days incubation at 37° C., when the cell monolayer was 70% confluent, the cell number was determined with the Coulter counter. The minimum cytotoxic concentration was defined as the concentration required to reduce cell growth by 50%.

[23] = tested on: HEL cells; experiment: Cytotoxicity: alteration of cell morphology (MCC); assay type: cell-based, human; conditions: minimum cytotoxic concentration that causes a microscopically detectable alteration of cell morphology
[24] = tested on: CMV Davis strain; experiment: Anti-CMV activity: plaque reduction in HEL cells, Davis strain; assay type: cell-based, human cytomegalovirus (CMV); conditions: Human betaherpesvirus 5, HEL; Table 6; reduce virus plaque formation by 50%; virus input 100 PFU; read-out: Anti-CMV activity IC50 Davis strain
[25] = Table 2, read-out: IC50 CMV AD-169 Strain

Structure (SMILES)	activity at 25 ppm [1] [%]	IC50 [2, 25] [µg/mL]	EC50 [3] [µg/mL]	IC50 [4] [µg/mL]	activity at 25 ppm [5] [%]	EC50 [6] [µg/mL]	activity at 25 ppm [7] [%]	EC50 [8] [µg/mL]	activity at 25 ppm [9] [%]	IC50 [10] [µg/mL]	activity at 25 ppm [11] [%]	IC50 [12] [µg/mL]	EC50 [13] [µg/mL]	EC50 [14] [µg/mL]	activity at 25 ppm [15] [%]	activity at 25 ppm [16] [%]	EC50 [17] [µg/mL]	IC50 [18] [µg/mL]	EC50 [19] [µg/mL]	IC50 [21] [µg/mL]	further results
CO[C@@H]1[C@@H](OC)[C@H](Sc2ccccc2)O[C@@H]2COC(=O)CC/C=C/CCC(=O)O[C@@H]12 [KPE00001002]	94	> 20	> 16	> 200	105	> 20	64	> 16	92.2	> 200	100	> 200	> 50	> 20	93.7	93.2	> 100	> 200	> 16	> 200	activity at 25 ppm [20]: 94.9%
CO[C@@H]1[C@@H](OC)[C@H](Sc2ccccc2)O[C@@H]2COCC=CCO[C@@H]12 [KPE00001014]	88.4	> 50	> 400	> 200	96	> 100	69	> 400	96.7	> 200	113	> 200	> 50	> 50	87.2	105	> 100	> 200	240 (≈ 681 µM)	> 200	activity at 25 ppm [20]: 95%
CO[C@@H]1[C@@H](OC)[C@H](c2ccccc2)O[C@@H]2COC(=O)CC/C=C/CCC(=O)O[C@@H]12 [KPE00001018]	94.5	> 20	> 16	> 200	93.5	> 100	79	> 16	59.8	> 200	100	132 ± 13 (≈ 326 µM)	> 50	> 50	96.6	100	> 20	> 200	> 16	> 200	activity at 25 ppm [20]: 94.9%
c1ccc(CO[C@@H]2[C@@H](OCc3ccccc3)[C@H](Sc3ccccc3)O[C@@H]3CO[C@@H](c4ccccc4)O[C@@H]23)cc1 [KPE00001044]	–	–	> 3.2	–	–	–	–	> 3.2	–	> 200	–	> 200	> 2	> 2	–	–	–	> 200	> 3.2	130 ± 61 (≈ 240 µM)	IC50 ([2]; Table 6, read-out: Anti-CMV activity IC50 AD-169 strain): > 2 µg/mL; CC50 at 3 days [22]: > 50 µg/mL; Cytotoxicity Cell morphology (MCC) [23]: 5 μg/ml; IC50 [24]: > 2 µg/mL

Source: patent US7534871B2, “Preparation and use of carbohydrate-based bicyclic ring structures with antimicrobial and cytostatic activity” (Kemin Pharma B.V.B.A., priority 2004, dated 2009)
